Laboratory results from patent publication US20110008261A1, “METHOD TO PRODUCE HYPERPOLARISED AMINO ACIDS AND AMINOSULPHONIC ACIDS” (GE HEALTHCARE LIMITED, priority 2008, published 2011).

Columns and labels:
[1] = Solid state polarisation after DNP, by solid state 13C-NMR; type: physicochemical; settings: 3.35 T, 93.90 GHz
Procedure: The level of polarisation may for instance be determined by solid state NMR measurements of the NMR nucleus in the frozen hyperpolarised sample. For instance, if the NMR active nucleus in the hyperpolarised sample is ^13C, a solid state ^13C-NMR measurement is carried out. The solid state ^13C-NMR measurement preferably consists of a simple pulse-acquire NMR sequence using a low flip angle. The signal intensity of the hyperpolarised sample in the ^13C-NMR spectrum is compared with signal intensity of the sample in a ^13C-NMR spectrum acquired before the DNP polarisation process. The level of polarisation is then calculated from the ratio of the signal intensities of before and after polarisation.
The probe is inserted into the probe-retaining container, submerged in the liquid helium and irradiated with microwaves, preferably at a frequency of about 94 GHz at 200 mW. The level of polarisation may for instance be monitored by solid state NMR measurements of the NMR active nucleus in the frozen solution comprising the hyperpolarised sample. For instance, if the NMR active nucleus in the hyperpolarised sample is ^13C, a solid state ^13C-NMR measurement is carried out. The solid state ^13C-NMR measurement preferably consists of a simple pulse-acquire NMR sequence using a low flip angle. The signal intensity of the hyperpolarised sample in the ^13C-NMR spectrum is compared with signal intensity of the sample in a ^13C-NMR spectrum acquired before the DNP polarisation process. The level of polarisation is then calculated from the ratio of the signal intensities of before and after polarisation.
32.5 mg (0.258 mmol) of the ^13C1-alanine hydrochloride obtained in Example 1a was added to 42 mg of a stock solution in a micro test tube. The stock solution had been prepared by dissolving the DNP agent (trityl radical) tris(8-carboxy-2,2,6,6-(tetra(hydroxyethyl)-benzo-[1,2-4,5′]-bis-(1,3)-dithiole-4-yl)-methyl sodium salt which had been synthesised according to Example 7 of WO-A1-98/39277 and the paramagnetic metal ion (Gd-chelate of 1,3,5-tris-(N-(DO3A-acetamido)-N-methyl-4-amino-2-methylphenyl)-[1,3,5]triazinane-2,4,6-trione) which had been synthesised according to Example 4 of WO-A-2007/064226 in glycerol in such a way that a glycerol solution being 26 mM in trityl radical and 0.52 mM in Gd-chelate had been obtained. The resulting composition was sonicated to dissolve the ^13C1-alanine hydrochloride and produce a clear solution. […] The frozen solution was polarised under DNP conditions at 1.2 K in a 3.35 T magnetic field under irradiation with microwave (93.90 GHz). Polarisation was followed by solid state ^13C-NMR and the solid state polarisation was determined to be 40%.
^13C1-glutamine (45.5 mg, 0.30 mmol, Cambridge Isotopes) was weighted into a micro test tube and dissolved in 23.5 μl water and 25 μl aqueous NaOH (12 M). The mixture was sonicated and gently heated to produce a clear solution. To the solution was added 5.7 mg of an aqueous solution of tris(8-carboxy-2,2,6,6-(tetra(hydroxyethyl)-benzo-[1,2-4,5′]-bis-(1,3)-dithiole-4-yl)-methyl sodium salt (trityl radical; 139 μmol/g solution) and 2.1 mg of an aqueous solution of the Gd-chelate of 1,3,5-tris-(N-(DO3A-acetamido)-N-methyl-4-amino-2-methylphenyl)-[1,3,5]triazinane-2,4,6-trione) (paramagnetic metal ion; 14.5 μmol/g solution) The resulting composition was sonicated and gently heated to produce a clear solution. […] The sample cup was removed from the liquid nitrogen, 25 μl aqueous HCl (12 M) were added to the sample cup. […] The frozen solution was polarised under DNP conditions at 1.2 K in a 3.35 T magnetic field under irradiation with microwave (93.90 GHz). Polarisation was followed by solid state ^13C-NMR and the solid state polarisation was determined to be 35%.

[2] = Liquid state polarisation after liquefaction and neutralization, by liquid state 13C-NMR at 400 MHz; type: physicochemical
Procedure: In a similar way, the level of polarisation for liquid hyperpolarised samples may be determined by liquid state NMR measurements of the NMR active nucleus in the liquid hyperpolarised sample. Again the signal intensity of the liquid hyperpolarised sample is compared with the signal intensity of the liquid sample before polarisation. The level of polarisation is then calculated from the ratio of the signal intensities of before and after polarisation.
After 150 minutes of dynamic nuclear polarisation, the obtained frozen polarised solution was dissolved in a dissolution medium containing 6 ml of a phosphate buffer (20 mM, pH 6.8, 100 mg/l EDTA), aqueous NaOH (27 μl 12 M solution, 1 eq) and 30 mg NaCl.
After 120 minutes of dynamic nuclear polarisation, the obtained frozen polarised solution was dissolved in a dissolution medium containing 6 ml phosphate buffer (40 mM, pH 7, 100 mg/l EDTA, 0.9% NaCl).

[3] = acidic preparation according to Example 1, DNP at 1.2 K
[4] = acidic preparation according to Example 1, after liquefaction and neutralization
[5] = basic preparation according to Example 2, DNP at 1.2 K
[6] = basic preparation according to Example 2, after liquefaction and neutralization

Structure (SMILES)	Solid state polarisation [1, 3] [%]	Liquid state polarisation [2, 4] [%]	Solid state polarisation [1, 5] [%]	Liquid state polarisation [2, 6] [%]	also measured
NC(=O)CCC(N)[13C](=O)[O-].[Na+] (stereo not drawn) [Sodium ^13C1-2-amino-4-carbamoyl-butanoate]	–	–	–	–	Solid state polarisation ([1]; Example 2a, 4 M aqueous, 11 mM trityl radical, 0.4 mM Gd3+, 1.2 K): 35%
NC[13C](=O)O [^13C1-glycine]	16	16	19	18	–
O=[13C](O)C1CCCN1 (stereo not drawn) [^13C1-proline]	–	16	–	–	–
N[C@@H](CS)[13C](=O)O [^13C1-cysteine]	25	17	–	–	–
C[C@H](N)[13C](=O)O.Cl [^13C1-alanine hydrochloride, ^13C1-alaninium chloride]	–	–	–	–	Solid state polarisation ([1]; Example 1b, 4 M in glycerol, 17 mM trityl radical, 0.9 mM Gd3+, 1.2 K): 40%

Now from value to molecule, other results behind:

Solid state polarisation [1, 3] [%]	Liquid state polarisation [2, 4] [%]	Solid state polarisation [1, 5] [%]	Liquid state polarisation [2, 6] [%]	Structure (SMILES)	also measured
41	26	–	–	CSCCC(N)[13C](=O)O (stereo not drawn) [^13C1-methionine]	–
–	–	35	21	CC(C)C[C@H](N)[13C](=O)O [^13C1-leucine]	–
–	–	18	16	CC(N)[13C](=O)O (stereo not drawn) [^13C1-alanine]	Liquid state polarisation ([2]; Example 1c, after 150 minutes DNP, dissolved in phosphate buffer/NaOH, final pH 6.8, 400 MHz): 35%
–	6	–	–	NC(=O)CC[C@H](N)[13C](=O)O [^13C1-glutamine]	Liquid state polarisation ([2]; Example 2b, after 120 minutes DNP, dissolved in phosphate buffer, final pH 7, 400 MHz): 30%
